Test results: publication PMC3231940, “Disposition, metabolism and mass balance of [^14C]apremilast following oral administration” (Xenobiotica; the Fate of Foreign Compounds in Biological …, 2011)
Several values for one entry are separate records, joined by “and”; a condition that tells them apart may be missing. Identical values can stand only once.

Experiments:
CYP3A4 = system: CYP3A4; design: method as in Wu et al. 2006; conditions: co-administration with ketoconazole, healthy subjects; ref Wu et al. 2006; cited from earlier work
[1] = Total radioactivity pharmacokinetics in plasma and whole blood; assay type: in vivo, human; conditions: single oral 20-mg dose
Method: (§1) Each subject was administered a single oral suspension of 20 mg (100 μCi) of [^14C] apremilast in distilled water (240mL total volume). Subjects were fasted for 8 h prior to and 4 h following dose administration. The residual radioactivity in the dosing vials was determined and accounted for approximately 0.3% of the total radioactivity. Dose administration, sample collection, sample processing and determination of total radioactivity were conducted at MDS Pharma Services (Lincoln, NE). Determination of apremilast in plasma, metabolite profiling and metabolite characterization were performed at XenoBiotic Laboratories, Inc. (Plainsboro, NJ).
(§2) Urine was collected pre-dose, 0-4, 4-8, 8-12, 12-24 and every 24 h thereafter up to 216h (9 days) following dose administration and was stabilized with one volume of pH 1.5 Sorensen's citrate buffer (25-mM sodium citrate buffer adjusted to pH 1.5). […] Blood (two 5-mL samples for plasma radioactivity counting, a 3-mL sample for whole blood radioactivity counting, a 2-mL sample for apremilast analysis and a 10-mL sample for metabolite profiling) was collected into heparinized tubes at pre-dose, 0.5, 1, 1.5, 2, 2.5, 3, 4, 6, 8, 12, 16, 24, 36, 48, 72, 96, 120, 144 and 168 h following dose administration. Blood samples collected for radioactivity counting were stored at or below -20°C until analysed. […] All urine, faecal homogenates and plasma samples were stored at or below -20°C until analysed.
All radioactivity determinations were performed using a Tri-Carb model 1600TR liquid scintillation counter (PerkinElmer, Wellesley, MA). For plasma and urine analysis, duplicate samples of a known volume were mixed with Ultima Gold XR scintillation cocktail and directly analysed by liquid scintillation counting. […] Using these criteria, the lower limit of quantification in plasma, blood, urine and faeces were 2.07 ng [^14C]apremilast equivalent/mL (ngEq/mL), 2.61 ngEq/g, 1.89 ngEq/mL and 2.52 ngEq/g, respectively. […]

[2] = system: TNF-α production by human peripheral blood mononuclear cells; test: TNF-α production assay in LPS-stimulated PBMC; assay type: cell-based; conditions: LPS 1 ng/mL, 16-18 h, ELISA
Method: (§3) PDE4 enzyme was isolated from U937 human monocytic cells and used for testing inhibition in a cAMP hydrolysis assay as previously described ([Schafer et al. 2010]). For the TNF-α production assay, human peripheral blood mono-nuclear cells (PBMC) were isolated from buffy coat of normal donor blood units (Blood Center of New Jersey, East Orange, NJ) by density centrifugation over Ficoll Hypaque (Pharmacia, Piscataway, NJ). Cells were cultured in RPMI 1640 (Life Technologies, Grand Island, NY) supplemented with 5% AB^+ human serum (Gemini Bio-products, Woodland, CA), 2-mM L-glutamine, 100-U/mL penicillin and 100-μg/mL streptomycin (Life Technologies). PBMC (2×10^5 cells) were plated in 96-well flat-bottom Costar tissue culture plates (Corning, NY) in duplicate. Cells were stimulated with lipopolysaccharides (LPS) (from Salmonella abortus equi; Sigma cat.no. L-1887, St.Louis, MO) at a final concentration of 1 ng/mL in the absence or presence of compounds. The compounds were dissolved in DMSO (Sigma) and subsequent dilutions were done in culture medium immediately before use. The compounds were added to cells 1 h before LPS stimulation. The cells were incubated for 16-18 h at 37°C in 5% CO2, and super-natants were then collected, diluted with culture medium and assayed for TNF-α levels by enzyme-linked immunosorbent assay (ThermoFisher, Rockford, IL). Fifty percent inhibitory concentrations (IC50) for the PDE4 enzymatic and TNF-α assay were calculated by non-linear regression analysis using Prism 5.1 (GraphPad Software). Regression curves were sigmoidal dose response curves with maximum and minimum constrained to 100% and 0%, respectively.

[3] = Mass balance: excretion of radioactivity in urine and faeces after a single oral [14C]apremilast dose; assay type: in vivo, human
Method: This was an open-label, inpatient, single-dose study conducted with six non-smoking healthy male volunteers, aged between 19 and 55 years, with body mass index between 19 and 29kg/m^2. Before initiation of the study, the protocol and consent form were reviewed and approved by the institutional review board. All study participants gave written informed consent before the screening process was initiated. This study was conducted in full accordance with the Declaration of Helsinki and Good Clinical (GCP) as required by and described in 21 Code of Federal Regulations.
as §1, §2
All radioactivity determinations were performed using a Tri-Carb model 1600TR liquid scintillation counter (PerkinElmer, Wellesley, MA). For plasma and urine analysis, duplicate samples of a known volume were mixed with Ultima Gold XR scintillation cocktail and directly analysed by liquid scintillation counting. […] Using these criteria, the lower limit of quantification in plasma, blood, urine and faeces were 2.07 ng [^14C]apremilast equivalent/mL (ngEq/mL), 2.61 ngEq/g, 1.89 ngEq/mL and 2.52 ngEq/g, respectively.
The amount of total radioactivity (ngEq) in urine and faeces was determined by multiplying the volume or weight of the samples by the radioactivity concentration. […] For data values below the limit of quantification, a value of zero was assigned for calculations of means.

[4] = cited from earlier work
[5] = system: PDE4 enzyme isolated from U937 human monocytic cells; test: PDE4 inhibition, cAMP hydrolysis assay; assay type: biochemical; conditions: PDE4 from U937 cells, cAMP hydrolysis
Method: as §3

[6] = patients, 20 mg daily for 29 days, capsules, ref Gottlieb et al. 2008

- Share of AUC0-∞ for radioactivity in plasma between 0 and 96 h [1]: approximately 90%
- Share of AUC0-∞ for radioactivity in plasma from AUC96-∞ [1]: 10%
- Plasma total radioactivity Tmax ([1]; median (min-max), listed as [^14C]apremilast): < 2 h
- IC50 [2]: 0.077 µM
- Amount of drug absorbed ([3]; based on urinary radioactivity): at least 58%
- Faecal excretion of radioactivity, mean (percentage of dose) ([3]; collection over 216 h, listed as [^14C]apremilast): 39% and 39.2%
- Amount of drug absorbed ([3]; if faecal metabolites are included in the calculation): > 80%
- Radioactivity recovered within the first 4 days (96 h) ([3]; urine plus faeces, 96 h after dose, listed as [^14C]apremilast): > 90% and > 92%
- IC50 [5]: 0.074 µM
Structure (SMILES): CCOc1cc([C@@H](CS(C)(=O)=O)N2C(=O)c3cccc(NC(C)=O)c3C2=O)ccc1OC [Apremilast, (+)-N-[2-[(lS)-1-(3-ethoxy-4-methoxyphenyl)-2-(methylsulfonyl)ethyl]-1,3-dioxo-2,3-dihydro-lH-isoindol-4-yl]acetamide]
- Increase in apremilast AUC (CYP3A4): 36%
- Increase in mean apremilast Cmax (CYP3A4): 5%
- half-life ([4]; patients with severe plaque-type psoriasis, multiple daily doses, ref Gottelieb et al. 2008): 8.2 h
- AUC0-24 [4, 6]: 1799 ng·h/mL
- Cmax [4, 6]: 207 ng/mL
